# Conditions: 1 g added to 25 mL of water at room temperature (about 25° C., 1 atmosphere)
smiles,measurement,value
[O]=[Zn] [zinc oxide],Water solubility,almost insoluble
